Source: patent publication US7544683B2, “Cyclohexyl derivatives” (Hoffmann-La Roche Inc., priority 2007, dated 2009)

The compounds below were run against T1, histamine 3 receptor (H3R) (Homo sapiens, UniProt Q9Y5N1) (assay: Binding assay with 3H-(R)α-methylhistamine, competition binding on membranes of the human H3R-CHO cell line). Conditions: competition with 3H(R)α-methylhistamine (1 nM), Ki calculated from IC50 by Cheng-Prusoff.
T1 construct: expressed in transfected cells; host or cells: CHO cells
Description: Binding Assay with ^3H-(R)α-methylhistamine
Saturation binding experiments were performed using HR3-CHO membranes prepared as described in Takahashi, K, Tokita, S., Kotani, H. (2003) J. Pharmacol. Exp. Therapeutics 307, 213-218.
An appropriate amount of membrane (60 to 80 μg protein/well) was incubated with increasing concentrations of ^3H(R)α-Methylhistamine di-hydrochloride (0.10 to 10 nM). Non specific binding was determined using a 200 fold excess of cold (R)α-Methylhistamine dihydrobromide (500 nM final concentration). The incubation was carried out at room temperature (in deep-well plates shaking for three hours). The final volume in each well was 250 μl. The incubation was followed by rapid filtration on GF/B filters (pre-soaked with 100 μl of 0.5% PEI in Tris 50 mM shaking at 200 rpm for two hours). The filtration was made using a cell-harvester and the filter plates were then washed five times with ice cold washing buffer containing 0.5 M NaCl. After harvesting, the plates were dried at 55° C. for 60 min, then we added scintillation fluid (Microscint 40, 40 microl in each well) and the amount of radioactivity on the filter was determined in Packard top-counter after shaking the plates for two hours at 200 rpm at room temperature.
Binding Buffer: 50 mM Tris-HCl pH 7.4 and 5 mM MgCl2×6H2O pH 7.4. Washing Buffer: 50 mM Tris-HCl pH 7.4 and 5 mM MgCl2×6H2O and 0.5 M NaCl pH 7.4.
Indirect measurement of affinity of H3R inverse agonists: twelve increasing concentrations (ranging from 10 μM to 0.3 nM) of the selected compounds were always tested in competition binding experiments using membrane of the human H3R-CHO cell line. An appropriate amount of protein, e.g. approximately 500 cpm binding of RAMH at Kd, were incubated for 1 hour at room temperature in 250 μl final volume in 96-well plates in presence of ^3H(R)α-methylhistamine (1 nM final concentration=Kd). Non-specific binding was determined using a 200 fold excess of cold (R)α-methylhistamine dihydrobromide.
All compounds were tested at a single concentration in duplicate. […] The concentration at which 50% inhibition of the radioligand ^3H(R)α-methylhistamine is obtained (the IC50) is determined from the linear regression of a plot of the logarithm of the concentration versus percent inhibition measured for the different concentrations. Ki's were calculated from IC50 based on Cheng-Prusoff equation (Cheng, Y, Prusoff, W H (1973) Biochem Pharmacol 22, 3099-3108): Ki=IC50/[1+D/Kd] wherein D is the concentration of the radioligand and Kd is the binding constant for the radioligand binding to the receptor under the conditions used in the competition experiment.

T1 sequence (Q9Y5N1 whole entry): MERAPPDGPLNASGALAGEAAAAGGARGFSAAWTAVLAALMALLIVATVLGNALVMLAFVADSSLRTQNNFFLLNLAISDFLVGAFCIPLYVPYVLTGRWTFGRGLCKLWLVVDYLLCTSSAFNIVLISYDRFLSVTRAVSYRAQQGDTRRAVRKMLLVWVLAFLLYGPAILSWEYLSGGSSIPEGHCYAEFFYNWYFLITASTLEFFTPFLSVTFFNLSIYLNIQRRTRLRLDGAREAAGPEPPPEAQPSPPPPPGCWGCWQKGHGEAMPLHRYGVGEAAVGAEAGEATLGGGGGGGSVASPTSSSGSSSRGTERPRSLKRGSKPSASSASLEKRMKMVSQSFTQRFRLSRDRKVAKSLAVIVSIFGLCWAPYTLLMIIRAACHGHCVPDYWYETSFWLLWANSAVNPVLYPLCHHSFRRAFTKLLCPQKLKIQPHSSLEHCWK

SMILES | Ki [nM]
CNC(=O)c1csc(O[C@H]2CC[C@H](C(=O)N3CCN(C(C)C)CC3)CC2)n1 [Example 27, trans-2-[4-(4-Isopropyl-piperazine-1-carbonyl)-cyclohexyloxy]-thiazole-4-carboxylic acid methylamide] | 28.8
CC(C)c1nnc(-c2ccc(O[C@H]3CC[C@H](C(=O)N4CCN(C(C)C)CC4)CC3)cc2)o1 [Example 31, trans-{4-[4-(5-Isopropyl-[1,3,4]oxadiazol-2-yl)-phenoxy]-cyclohexyl}-(4-isopropyl-piperazin-1-yl)-methanone] | 5.6
CC(C)N1CCN(C(=O)[C@H]2CC[C@H](Oc3ccc(-c4ccncc4)cc3)CC2)CC1 [Example 50, trans-(4-Isopropyl-piperazin-1-yl)-[4-(4-pyridin-4-yl-phenoxy)-cyclohexyl]-methanone] | 4.4

Further lines, results first:

Ki [nM] | SMILES
6.5 | O=C([C@H]1CC[C@H](Oc2ccc(-n3cncn3)cc2)CC1)N1CCN(C2CCC2)CC1 [Example 1, Trans-(4-Cyclobutyl-piperazin-1-yl)-[4-(4-[1,2,4]triazol-1-yl-phenoxy)-cyclohexyl]-methanone]
11.2 | CS(=O)(=O)c1ccc(O[C@H]2CC[C@H](C(=O)N3CCN(C4CCC4)CC3)CC2)nc1 [Example 13, trans-(4-Cyclobutyl-piperazin-1-yl)-[4-(5-methanesulfonyl-pyridin-2-yloxy)-cyclohexyl]-methanone]
6.9 | O=C1COCCN1c1ccc(O[C@H]2CC[C@H](C(=O)N3CCN(C4CCC4)CC3)CC2)cc1 [Example 42, trans-4-{4-[4-(4-Cyclobutyl-piperazine-1-carbonyl)-cyclohexyloxy]-phenyl}-morpholin-3-one]
